Results as given in paper PMC5834492, “Antimycobacterial drug discovery using Mycobacteria-infected amoebae identifies anti-infectives and new molecular targets” (Scientific Reports, 2018).

Tested on: M. marinum GFP
Type: cell-based, Mycobacterium marinum
Conditions: 10 µM; antibiotic assay

In order of rising “M. marinum GFP normalised growth, control=1.00, mean” value:
1. O=C(C=Cc1cccs1)N1CCN(Cc2ccc3c(c2)OCO3)CC1 [GW861072X]  0.05
2. CCCCS(=O)(=O)Nc1ccc2cnn(C)c2c1 [GSK3011724A]  0.08
3. Nc1nc(N)c2c(Sc3ccc4ccccc4c3)cccc2n1 [GW369335X]  0.14
4. Cc1n[nH]c(C)c1S(=O)(=O)NCc1nc(NCCCc2ccccc2)c2ccccc2n1 [GSK2059310A]  0.46
5. Nc1cc(OCc2ccccc2)ccc1Nc1ccccc1 [GV187303X]  0.71
6. Cc1cc(OCC(=O)Nc2ccccc2)c2cc(Br)ccc2n1 [GW857165X]  0.81
7. O=C(NC12CC3CC(CC(C3)C1)C2)c1cc2cc(Cl)ccc2[nH]1 [GW623128X]  0.86
8. CCc1ccc(S(=O)(=O)Nc2cc(CN3CCN(CCC(C)C)CC3)ccc2C)cc1.O=C(O)C(F)(F)F.O=C(O)C(F)(F)F [SB-811137-V]  0.94
9. COc1ccc(-c2nc(-c3cccc(NC(=O)Cc4ccc(F)cc4)c3)no2)cc1OC [GSK2043267A]  0.97
10. Nc1ccccc1Nc1ccc2c(c1)OCO2 [SB-435634]  1.08

Same assay, conditions: broth

For `COc1ccc(-c2nc(-c3cccc(NC(=O)Cc4ccc(F)cc4)c3)no2)cc1OC` [GSK2043267A], the “antibiotic activity in M. marinum growth assay” value was “strong antibiotic activity”.

Tested on: D. discoideum GFP-ABD
Conditions: 10 µM

In order of rising “D. discoideum GFP-ABD normalised growth, control=1.00, mean” value:
1. O=C(C=Cc1cccs1)N1CCN(Cc2ccc3c(c2)OCO3)CC1 [GW861072X]  0.68
2. Cc1n[nH]c(C)c1S(=O)(=O)NCc1nc(NCCCc2ccccc2)c2ccccc2n1 [GSK2059310A]  0.84
3. CCc1ccc(S(=O)(=O)Nc2cc(CN3CCN(CCC(C)C)CC3)ccc2C)cc1.O=C(O)C(F)(F)F.O=C(O)C(F)(F)F [SB-811137-V]  0.88
4. Nc1cc(OCc2ccccc2)ccc1Nc1ccccc1 [GV187303X]  0.89
5. Cc1cc(OCC(=O)Nc2ccccc2)c2cc(Br)ccc2n1 [GW857165X]  0.90
6. Nc1nc(N)c2c(Sc3ccc4ccccc4c3)cccc2n1 [GW369335X]  0.97
7. CCCCS(=O)(=O)Nc1ccc2cnn(C)c2c1 [GSK3011724A]  0.99
8. O=C(NC12CC3CC(CC(C3)C1)C2)c1cc2cc(Cl)ccc2[nH]1 [GW623128X]  1.06
9. Nc1ccccc1Nc1ccc2c(c1)OCO2 [SB-435634]  1.14
10. COc1ccc(-c2nc(-c3cccc(NC(=O)Cc4ccc(F)cc4)c3)no2)cc1OC [GSK2043267A]  1.18

Tested on: Mtb H37Rv
Parameters: method as in Sorrentino et al, 2015
Conditions: ref Sorrentino et al, 2015; cited from earlier work

In order of rising “Extracellular MIC90” value:
1. O=C(C=Cc1cccs1)N1CCN(Cc2ccc3c(c2)OCO3)CC1 [GW861072X]  0.3 µM
2. O=C(NC12CC3CC(CC(C3)C1)C2)c1cc2cc(Cl)ccc2[nH]1 [GW623128X]  1 µM
3. CCCCS(=O)(=O)Nc1ccc2cnn(C)c2c1 [GSK3011724A]  1.3 µM
4. Cc1n[nH]c(C)c1S(=O)(=O)NCc1nc(NCCCc2ccccc2)c2ccccc2n1 [GSK2059310A]  1.8 µM
5. Nc1ccccc1Nc1ccc2c(c1)OCO2 [SB-435634]  1.8 µM
6. Cc1cc(OCC(=O)Nc2ccccc2)c2cc(Br)ccc2n1 [GW857165X]  3.3 µM
7. COc1ccc(-c2nc(-c3cccc(NC(=O)Cc4ccc(F)cc4)c3)no2)cc1OC [GSK2043267A]  3.7 µM
8. CCc1ccc(S(=O)(=O)Nc2cc(CN3CCN(CCC(C)C)CC3)ccc2C)cc1.O=C(O)C(F)(F)F.O=C(O)C(F)(F)F [SB-811137-V]  4.7 µM
9. Nc1nc(N)c2c(Sc3ccc4ccccc4c3)cccc2n1 [GW369335X]  8.7 µM
10. Nc1cc(OCc2ccccc2)ccc1Nc1ccccc1 [GV187303X]  9.4 µM

Tested on: M. marinum in BV2 microglial cells
Type: cell-based, Mycobacterium marinum
Conditions: not given

In order of rising IC50:
1. Cc1cc(OCC(=O)Nc2ccccc2)c2cc(Br)ccc2n1 [GW857165X]  3.52 µM
2. CCCCS(=O)(=O)Nc1ccc2cnn(C)c2c1 [GSK3011724A]  4.44 µM
3. Cc1n[nH]c(C)c1S(=O)(=O)NCc1nc(NCCCc2ccccc2)c2ccccc2n1 [GSK2059310A]  4.65 µM
4. Nc1nc(N)c2c(Sc3ccc4ccccc4c3)cccc2n1 [GW369335X]  4.87 µM
5. O=C(NC12CC3CC(CC(C3)C1)C2)c1cc2cc(Cl)ccc2[nH]1 [GW623128X]  4.92 µM
6. Nc1cc(OCc2ccccc2)ccc1Nc1ccccc1 [GV187303X]  5.44 µM
7. CCc1ccc(S(=O)(=O)Nc2cc(CN3CCN(CCC(C)C)CC3)ccc2C)cc1.O=C(O)C(F)(F)F.O=C(O)C(F)(F)F [SB-811137-V]  5.94 µM
8. COc1ccc(-c2nc(-c3cccc(NC(=O)Cc4ccc(F)cc4)c3)no2)cc1OC [GSK2043267A]  6.69 µM
9. O=C(C=Cc1cccs1)N1CCN(Cc2ccc3c(c2)OCO3)CC1 [GW861072X]  7.99 µM
10. Nc1ccccc1Nc1ccc2c(c1)OCO2 [SB-435634]  11.4 µM

Same assay, conditions: 10 µM

In order of falling “BV2 / M. marinum normalised growth, control=1.00, mean” value:
1. CCc1ccc(S(=O)(=O)Nc2cc(CN3CCN(CCC(C)C)CC3)ccc2C)cc1.O=C(O)C(F)(F)F.O=C(O)C(F)(F)F [SB-811137-V]  0.85
2. COc1ccc(-c2nc(-c3cccc(NC(=O)Cc4ccc(F)cc4)c3)no2)cc1OC [GSK2043267A]  0.77
3. Cc1cc(OCC(=O)Nc2ccccc2)c2cc(Br)ccc2n1 [GW857165X]  0.72
4. Nc1nc(N)c2c(Sc3ccc4ccccc4c3)cccc2n1 [GW369335X]  0.71
5. O=C(NC12CC3CC(CC(C3)C1)C2)c1cc2cc(Cl)ccc2[nH]1 [GW623128X]  0.66
6. Nc1ccccc1Nc1ccc2c(c1)OCO2 [SB-435634]  0.63
7. Cc1n[nH]c(C)c1S(=O)(=O)NCc1nc(NCCCc2ccccc2)c2ccccc2n1 [GSK2059310A]  0.57
8. Nc1cc(OCc2ccccc2)ccc1Nc1ccccc1 [GV187303X]  0.55
9. O=C(C=Cc1cccs1)N1CCN(Cc2ccc3c(c2)OCO3)CC1 [GW861072X]  0.48
10. CCCCS(=O)(=O)Nc1ccc2cnn(C)c2c1 [GSK3011724A]  0.40

For `CCCCS(=O)(=O)Nc1ccc2cnn(C)c2c1` [GSK3011724A], the “anti-infective properties in microglial cell (BV2) infection assay” value was “strong anti-infective properties”.

For `CCCCS(=O)(=O)Nc1ccc2cnn(C)c2c1` [GSK3011724A], the “hit in BV2/M. marinum assay True/False” value was “TRUE”.
With `Nc1nc(N)c2c(Sc3ccc4ccccc4c3)cccc2n1` [GW369335X] the “hit in BV2/M. marinum assay True/False” value was “FALSE”.
In the case of `O=C(C=Cc1cccs1)N1CCN(Cc2ccc3c(c2)OCO3)CC1` [GW861072X], the “hit in BV2/M. marinum assay True/False” value is reported as “TRUE”.

Tested on: M. marinum luxCDABE
Type: cell-based, Mycobacterium marinum
Conditions: 10 µM

In order of rising “M. marinum luxCDABE normalised growth, control=1.00, mean” value:
1. COc1ccc(-c2nc(-c3cccc(NC(=O)Cc4ccc(F)cc4)c3)no2)cc1OC [GSK2043267A]  0.00
2. Cc1n[nH]c(C)c1S(=O)(=O)NCc1nc(NCCCc2ccccc2)c2ccccc2n1 [GSK2059310A]  0.00
3. O=C(NC12CC3CC(CC(C3)C1)C2)c1cc2cc(Cl)ccc2[nH]1 [GW623128X]  0.00
4. Cc1cc(OCC(=O)Nc2ccccc2)c2cc(Br)ccc2n1 [GW857165X]  0.00
5. O=C(C=Cc1cccs1)N1CCN(Cc2ccc3c(c2)OCO3)CC1 [GW861072X]  0.00
6. CCCCS(=O)(=O)Nc1ccc2cnn(C)c2c1 [GSK3011724A]  0.14
7. CCc1ccc(S(=O)(=O)Nc2cc(CN3CCN(CCC(C)C)CC3)ccc2C)cc1.O=C(O)C(F)(F)F.O=C(O)C(F)(F)F [SB-811137-V]  0.18
8. Nc1nc(N)c2c(Sc3ccc4ccccc4c3)cccc2n1 [GW369335X]  0.20
9. Nc1cc(OCc2ccccc2)ccc1Nc1ccccc1 [GV187303X]  0.90
10. Nc1ccccc1Nc1ccc2c(c1)OCO2 [SB-435634]  1.00

With `O=C(C=Cc1cccs1)N1CCN(Cc2ccc3c(c2)OCO3)CC1` [GW861072X] the “M. marinum luxCDABE normalised growth, control = 1.00, mean” value was 0,00.

Tested on: M. marinum in A. castellanii
Type: cell-based, Mycobacterium marinum
Conditions: 10 µM

In order of rising “A. castellanii / M. marinum normalised growth, control=1.00, mean” value:
1. CCCCS(=O)(=O)Nc1ccc2cnn(C)c2c1 [GSK3011724A]  -0.32
2. Nc1nc(N)c2c(Sc3ccc4ccccc4c3)cccc2n1 [GW369335X]  0.37
3. O=C(NC12CC3CC(CC(C3)C1)C2)c1cc2cc(Cl)ccc2[nH]1 [GW623128X]  0.51
4. O=C(C=Cc1cccs1)N1CCN(Cc2ccc3c(c2)OCO3)CC1 [GW861072X]  0.54
5. Cc1cc(OCC(=O)Nc2ccccc2)c2cc(Br)ccc2n1 [GW857165X]  0.83
6. COc1ccc(-c2nc(-c3cccc(NC(=O)Cc4ccc(F)cc4)c3)no2)cc1OC [GSK2043267A]  0.86
7. Nc1ccccc1Nc1ccc2c(c1)OCO2 [SB-435634]  1.04
8. Nc1cc(OCc2ccccc2)ccc1Nc1ccccc1 [GV187303X]  1.05
9. Cc1n[nH]c(C)c1S(=O)(=O)NCc1nc(NCCCc2ccccc2)c2ccccc2n1 [GSK2059310A]  1.06
10. CCc1ccc(S(=O)(=O)Nc2cc(CN3CCN(CCC(C)C)CC3)ccc2C)cc1.O=C(O)C(F)(F)F.O=C(O)C(F)(F)F [SB-811137-V]  1.15

With `CCCCS(=O)(=O)Nc1ccc2cnn(C)c2c1` [GSK3011724A] the “Hits A. castellanii/M. marinum assay True/False” value was “TRUE”.
With `Nc1nc(N)c2c(Sc3ccc4ccccc4c3)cccc2n1` [GW369335X] the “Hits A. castellanii/M. marinum assay True/False” value was “TRUE”.
In the case of `O=C(C=Cc1cccs1)N1CCN(Cc2ccc3c(c2)OCO3)CC1` [GW861072X], the “Hits A. castellanii/M. marinum assay True/False” value is reported as “FALSE”.

In the case of `CCCCS(=O)(=O)Nc1ccc2cnn(C)c2c1` [GSK3011724A], the “anti-infective properties in A. castellanii infection assay” value is reported as “strong anti-infective properties”.

Tested on: Mtb H37Rv in THP-1
Parameters: method as in Sorrentino et al, 2015
Conditions: Mtb H37Rv-infected THP1 cells; ref Sorrentino et al, 2015; cited from earlier work

In order of falling “Intracelullar MIC90 in THP-1” value:
1. Nc1nc(N)c2c(Sc3ccc4ccccc4c3)cccc2n1 [GW369335X]  5.55 µM
2. O=C(C=Cc1cccs1)N1CCN(Cc2ccc3c(c2)OCO3)CC1 [GW861072X]  0.61 µM
3. CCCCS(=O)(=O)Nc1ccc2cnn(C)c2c1 [GSK3011724A]  0.21 µM

Same assay, conditions: THP1 / Mtb H37Rv infection assay; ref Sorrentino et al, 2015; cited from earlier work

In order of falling “Intracelullar MIC90 in THP-1” value:
1. Nc1cc(OCc2ccccc2)ccc1Nc1ccccc1 [GV187303X]  50 µM
2. Cc1cc(OCC(=O)Nc2ccccc2)c2cc(Br)ccc2n1 [GW857165X]  16.65 µM
3. Cc1n[nH]c(C)c1S(=O)(=O)NCc1nc(NCCCc2ccccc2)c2ccccc2n1 [GSK2059310A]  5.55 µM
4. Nc1nc(N)c2c(Sc3ccc4ccccc4c3)cccc2n1 [GW369335X]  5.55 µM
5. Nc1ccccc1Nc1ccc2c(c1)OCO2 [SB-435634]  5.55 µM
6. CCc1ccc(S(=O)(=O)Nc2cc(CN3CCN(CCC(C)C)CC3)ccc2C)cc1.O=C(O)C(F)(F)F.O=C(O)C(F)(F)F [SB-811137-V]  5.55 µM
7. O=C(C=Cc1cccs1)N1CCN(Cc2ccc3c(c2)OCO3)CC1 [GW861072X]  0.61 µM
8. COc1ccc(-c2nc(-c3cccc(NC(=O)Cc4ccc(F)cc4)c3)no2)cc1OC [GSK2043267A]  0.21 µM
9. CCCCS(=O)(=O)Nc1ccc2cnn(C)c2c1 [GSK3011724A]  0.21 µM
10. O=C(NC12CC3CC(CC(C3)C1)C2)c1cc2cc(Cl)ccc2[nH]1 [GW623128X]  0.07 µM

Same assay, conditions: ratio; ref Sorrentino et al, 2015; cited from earlier work

In order of rising “Extracellular MIC90/ Inracellular MIC90” value:
1. Nc1cc(OCc2ccccc2)ccc1Nc1ccccc1 [GV187303X]  0.19
2. Cc1cc(OCC(=O)Nc2ccccc2)c2cc(Br)ccc2n1 [GW857165X]  0.2
3. Cc1n[nH]c(C)c1S(=O)(=O)NCc1nc(NCCCc2ccccc2)c2ccccc2n1 [GSK2059310A]  0.32
4. Nc1ccccc1Nc1ccc2c(c1)OCO2 [SB-435634]  0.32
5. O=C(C=Cc1cccs1)N1CCN(Cc2ccc3c(c2)OCO3)CC1 [GW861072X]  0.49
6. CCc1ccc(S(=O)(=O)Nc2cc(CN3CCN(CCC(C)C)CC3)ccc2C)cc1.O=C(O)C(F)(F)F.O=C(O)C(F)(F)F [SB-811137-V]  0.85
7. Nc1nc(N)c2c(Sc3ccc4ccccc4c3)cccc2n1 [GW369335X]  1.57
8. CCCCS(=O)(=O)Nc1ccc2cnn(C)c2c1 [GSK3011724A]  6.19
9. O=C(NC12CC3CC(CC(C3)C1)C2)c1cc2cc(Cl)ccc2[nH]1 [GW623128X]  14.28
10. COc1ccc(-c2nc(-c3cccc(NC(=O)Cc4ccc(F)cc4)c3)no2)cc1OC [GSK2043267A]  17.62
